Data from patent publication US9416099B2 (priority 2010, dated 2016).
Several values for one entry are separate records, joined by “and”; a condition that tells them apart may be missing. Equal values may be shown once.

Tests used:
[1] = tested on: Pseudomonas aeruginosa; format: cell-based
[2] = tested on: Staphylococcus aureas; format: cell-based
[3] = tested on: Pseudomonas aeruginosa and Staphylococcus aureas; format: cell-based
[4] = format: physicochemical

Compound | Adjuvant 1 h, mL separation [mL] | Anionic 1 h, mL separation [mL] | Nonionic 1 h, mL separation [mL] | Adjuvant 24 h, mL separation [mL] | Anionic 24 h, mL separation [mL] | % Kill, Pseudomonas aeruginosa, 400 ppm [1] [%] | % Kill, Pseudomonas aeruginosa, DI water [1] [%] | % Kill, Staphylococcus aureas, 400 ppm [2] [%] | % Kill, Staphylococcus aureas, DI water [2] [%] | Overall Rating [3] | Nonionic 24 h, mL separation [mL] | % Separation 1 h [4] [%] | % Separation 24 h [4]
C[N+](C)(CCCNC(=O)CCCCCCCC=CCCCCCCCC(=O)NCCC[N+](C)(C)CC(=O)[O-])CC(=O)[O-] (mixture of isomers) [Mix-32, C18 DiBetaine] | 0 | 0 | 0 | 0 | 0 | – | – | – | – | – | – | – | –
C=CCCCCCCCC(=O)NCCC[N+](C)(C)C [C10-18, C10 DMAPA Quat] | – | – | – | – | – | 28.9 | 29.6 | 71.8 | 75.9 | good | – | – | –
C=CCCCCCCCC(=O)NCCC[N+](C)(C)CC(=O)[O-] [C10-22, C10 DMAPA Betaine] | 0 | 0 | – | 0 | 0 | – | – | – | – | – | 0.5 | – | –
C=CCCCCCCCC(=O)NCCC[N+](C)(C)CC(O)CS(=O)(=O)[O-] (stereo not drawn) [C10-24, C10 DMAPA Sulfobetaine] | 0 | 0 | 0.5 | 0 | 0 | – | – | – | – | – | 0.5 | – | –
C=CCCCCCCCC(=O)NCCC[N+](C)(C)Cc1ccccc1.[Cl-] [C10-31, C10 DMAPA Benzyl Quat] | – | – | – | – | – | 47.4 | 47.5 | 65.5 | 79.7 | superior | – | – | –
C=CCCCCCCCC[N+](C)(C)C [C10-42, C10 Amine DMS Quat] | 0 | 0 | – | 0 | 0 | – | – | – | – | – | – | – | –
CC/C=C/CCCCCCCC(=O)NCCC[N+](C)(C)C [C12-18] | – | – | – | – | – | 40.5 | 58.7 | 66.3 | 42.4 | good | – | – | –
CC/C=C/CCCCCCCC(=O)NCCC[N+](C)(C)CC(=O)[O-] [C12-22, C12 DMAPA Betaine] | 0 | 0 | 0 | 0 | 0 | – | – | – | – | – | – | – | –
CCCC(CCCCCCCC(=O)NCCC[N+](C)(C)CC(=O)[O-])S(=O)(=O)[O-].[Na+] (stereo not drawn) [C12-23, C12 DMAPA Betaine Sulfonate] | 0 | 0 | – | 0 | 0 | – | – | – | – | – | 0.25 | 3 | 3.5% and 3%
CC/C=C/CCCCCCCC(=O)NCCC[N+](C)(C)CC(O)CS(=O)(=O)[O-] (stereo not drawn) [C12-24, C12 DMAPA Sulfobetaine] | 0 | 0 | 0.25 | 0 | 0 | – | – | – | – | – | 1 | – | –
CC/C=C/CCCCCCCC[N+](C)(C)Cc1ccccc1 [C12-27, C12 Amine Benzyl Quat] | 0 | 0 | – | 0 | 0 | 59.5 | 51.2 | 63.5 | 46.0 | good | – | – | –
CCCCCC/C=C/CCCCCCCC(=O)NCCC[N+](C)(C)CC(=O)[O-] [C16-13, C16 DMAPA Betaine] | – | 0 | – | – | 0.25 | – | – | – | – | – | – | – | –
CCCCCC/C=C/CCCCCCCC[N+](C)(C)Cc1ccccc1 [C16-17, C16 Amine Benzyl Quat] | – | – | – | – | – | 39.4 | 42.6 | 42.5 | 48.1 | superior | – | – | –
C[N+](C)(C)CCCNC(=O)CCCCCCC/C=C/CCCCCCCC(=O)NCCC[N+](C)(C)C [C18-27, C18 DiDMAPA DiQuat] | – | – | – | – | – | 19.8 | 38.9 | 17.7 | 55.4 | good | – | – | –
C[N+](C)(C)CCCNC(=O)CCCCCCC/C=C/CCCCCCCC(=O)NCCC[N+](C)(C)[O-] [C18-35, C18 DiDMAPA Quat AO] | – | – | – | – | – | 34.4 | 29.3 | 35.7 | 55.1 | good | – | – | –
CN(C)CCCNC(=O)CCCCCCC/C=C/CCCCCCCC(=O)NCCC[N+](C)(C)CC(=O)[O-] [C18-36, C18 DiDMAPA MonoBetaine] | 0 | 0 | 0 | 0 | 0 | – | – | – | – | – | – | – | –
C[N+](C)([O-])CCCNC(=O)CCCCCCC/C=C/CCCCCCCC(=O)NCCC[N+](C)(C)CC(=O)[O-] [C18-37, C18 DiDMAPA Betaine AO] | 0 | 0 | 0 | 0 | 0 | – | – | – | – | – | – | – | –
C[N+](C)(C)CCCNC(=O)CCCCCCC/C=C/CCCCCCCC(=O)NCCC[N+](C)(C)CC(=O)O [C18-38, C18 DiDMAPA Betaine Quat] | – | – | – | – | – | 18.8 | 42.2 | 30.3 | 57.4 | good | – | – | –
C[N+](C)(CCCNC(=O)CCCCCCC/C=C/CCCCCCCC(=O)NCCC[N+](C)(C)Cc1ccccc1)Cc1ccccc1.[Cl-].[Cl-] [C18-65, C18 DiDMAPA Benzyl Quat] | – | – | – | – | – | 24.7 | 30.4 | 20.6 | 55.6 | good | – | – | –
C[N+](C)(C)CCCNC(=O)CCCCCCC/C=C/CCCCCCCC(=O)NCCC[N+](C)(C)C [Mix-27, C18 DiDMAPA DiQuat] | 0 | 0 | 0 | 0 | 0 | 23.2 | 52.4 | 23.2 | 56.1 | good | 0 | – | –
C[N+](C)(CCCNC(=O)CCCCCCC/C=C/CCCCCCCC(=O)NCCC[N+](C)(C)CC(O)CS(=O)(=O)[O-])CC(O)CS(=O)(=O)[O-] (stereo not drawn) [Mix-31, C18 DiSulfobetaine] | 0 | 0 | 0 | 0 | 0 | – | – | – | – | – | – | – | –
CN(C)CCCNC(=O)CCCCCCC/C=C/CCCCCCCC(=O)NCCC[N+](C)(C)C [Mix-34, C18 DiDMAPA MonoQuat] | – | – | – | – | – | 24.1 | 47.5 | 28.6 | 57.5 | good | – | – | –
C[N+](C)(C)CCCNC(=O)CCCCCCC/C=C/CCCCCCCC(=O)NCCC[N+](C)(C)[O-] [Mix-35, C18 DiDMAPA Quat AO] | 0 | 0 | 5 | 0 | 0 | 22.1 | 31.4 | 20.9 | 55.6 | good | 1 | – | –
CN(C)CCCNC(=O)CCCCCCC/C=C/CCCCCCCC(=O)NCCC[N+](C)(C)CC(=O)[O-] [Mix-36, C18 DiDMAPA MonoBetaine] | – | 0 | 0 | – | 0 | – | – | – | – | – | 0 | – | –
C[N+](C)([O-])CCCNC(=O)CCCCCCC/C=C/CCCCCCCC(=O)NCCC[N+](C)(C)CC(=O)[O-] [Mix-37, C18 DiDMAPA Betaine AO] | – | 0 | 0 | 0.5 | – | – | – | – | – | – | 0 | – | –
C[N+](C)(C)CCCNC(=O)CCCCCCC/C=C/CCCCCCCC(=O)NCCC[N+](C)(C)CC(=O)O [Mix-38, C18 DiDMAPA Betaine Quat] | 0.5 | – | 0 | 0.5 | – | – | – | – | – | – | 0 | – | –
COC(=O)CCCCCCC/C=C/CCCCCCCC(=O)NCCC[N+](C)(C)CC(=O)[O-] [Mix-48, C18 Ester DMAPA Betaine] | 0 | 0 | 0 | 0 | 0 | – | – | – | – | – | 0.5 | – | –
C[N+](C)(CCCNC(=O)CCCCCCC/C=C/CCCCCCCC(=O)NCCC[N+](C)(C)Cc1ccccc1)Cc1ccccc1.[Cl-].[Cl-] [Mix-65, C18 DiDMAPA Benzyl Quat] | – | – | – | – | – | 26.1 | 30.5 | 22.1 | 55.3 | good | – | – | –
calcium alkylbenzenesulfonate [Control 1, reference compound] | – | – | – | – | – | – | – | – | – | – | – | <0.2 | 1.3%
